Data published in article PMC7784547 (Bioorganic Chemistry, 2021).

Experiments:
[1] = tested on: A/Puerto Rico/8/34 (H1N1) with the NA-H274Y mutation; format: cell-based, influenza A virus; settings: read-out: IC50 ± SD, 274
[2] = tested on: influenza A/PR/8/34 (H1N1) virus; format: cell-based

## C=Cc1c(C)c2cc3nc(c4c5[nH]c(cc6nc(cc1[nH]2)C(C)=C6CC)c(C)c5C(=O)C4)[C@@H](CCC(=O)O)[C@@H]3C [PPa, pyropheophorbide a, reference compound]
[1]
  IC50: 1050 ± 990 nM

## protoporphyrin IX [PPIX]
[1]
  IC50: 1240 ± 530 nM
[2]
  IC50 after passage of ten generations: 2.18 ± 0.71 µg/mL
